Publication PMC3747428, “Asymmetry of the Active Site Loop Conformation between Subunits of Glutamate-1-semialdehyde Aminomutase in Solution” (BioMed Research International, 2013)

Key:
[1] = molecular target: T1, Glutamate-1-semialdehyde aminomutase (GSAM) from Synechococcus (Synechococcus elongatus, UniProt P24630); assay: half-transamination converting native enzyme into PLP form, followed by gel filtration and absorbance; type: biochemical; conditions: substrate analogue, 20 mM; 100 mM Na-Tricine pH 7.9
T1 construct: gene hemL; homodimer; mobile loop residues 153-181; Trp53 and Trp67
T1 sequence (P24630 2-433): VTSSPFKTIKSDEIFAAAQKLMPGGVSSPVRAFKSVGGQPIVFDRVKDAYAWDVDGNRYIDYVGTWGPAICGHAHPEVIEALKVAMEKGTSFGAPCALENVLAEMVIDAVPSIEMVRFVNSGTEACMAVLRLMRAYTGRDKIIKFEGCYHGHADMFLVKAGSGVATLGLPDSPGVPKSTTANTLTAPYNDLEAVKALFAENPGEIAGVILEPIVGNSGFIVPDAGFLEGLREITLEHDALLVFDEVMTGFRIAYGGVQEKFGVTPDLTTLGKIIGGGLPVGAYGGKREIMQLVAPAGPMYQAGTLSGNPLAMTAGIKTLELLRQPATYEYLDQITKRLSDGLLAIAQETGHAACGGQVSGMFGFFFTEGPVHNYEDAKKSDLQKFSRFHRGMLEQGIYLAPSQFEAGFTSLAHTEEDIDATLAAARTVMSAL

[2] = molecular target: T1, Glutamate-1-semialdehyde aminomutase (GSAM) from Synechococcus; assay: half-transamination converting native enzyme into PMP form, followed by gel filtration and absorbance; type: biochemical; conditions: reaction intermediate, racemic, 5 mM; 100 mM Na-Tricine pH 7.9

| Compound | half-transamination converting native enzyme into PLP form, followed by gel filt [1] | half-transamination converting native enzyme into PMP form, followed by gel filt [2] |
| --- | --- | --- |
| O=CCCC(=O)O [succinic semialdehyde] | PLP-GSAM), obtained by treating the native enzyme with succinic-1-semialdehyde | – |
| NCC(N)CCC(=O)O (racemic) [DAVA, 4,5-diaminovalerate] | – | the PMP form (PMP-GSAM), obtained by the addition of DAVA |
